Test results: article PMC10856407, “Polymer Nanoparticles with 2-HP-β-Cyclodextrin for Enhanced Retention of Uptake into HCE-T Cells” (Molecules, 2024)

Legend:
HCE-T cells [1] = assay: Endocytic transport mechanism in nanoparticle uptake (endocytosis inhibitors, flow cytometry); assay type: cell-based, human; settings: EIPA 100 μM, Chlorpromazine 30 μM, Nystain 30 μM, p < 0.01
Method: The main nanoparticle entry processes involve the clathrin structure, caveolin/lipid raft structure, and macropinocytosis. The experiment was conducted by separately adding different endocytosis transport inhibitors to examine the degree of action during nanoparticle uptake. The clathrin structural inhibitor Chlorpromazine (30 μM), the caveolin/lipid raft structure inhibitor Nystain (30 μM), and the macropinocytosis inhibitor derivative amiloride (EIPA, 100 μM) were added seperately. […] Serum-free cultures of varying endocytotic transport inhibitors were inspected using the method described above (Study of Active Transport Mechanism in Nanoparticle Uptake by HCE-T Cells).

HCE-T cells [2] = settings: sodium azide 1 mg·mL^−1, 1 h pre-incubation, 4 h uptake, NPs 20 μg·mL^−1, p < 0.01
Method: HCE-T cells were seeded at a density of 1 × 10^5 cells·well^−1 in a six-well plate, and the culture medium was discarded when the cell density reached 80%. […] Then, fluorescently labeled nanoparticles were added for a final concentration of 20 μg·mL^−1. After continuing the uptake experiment for 4 h, the fluorescently labeled nanoparticle solution was discarded, washed three times with PBS, and digested using trypsin. The cells were blown out with serum cultures, collected, and centrifuged at 1000 rpm. The supernatant was aspirated to remove the fluorescent material adsorbed on the cell surface. Finally, 0.3 mL of the cells suspended in PBS were transferred into flow tubes and assayed using flow cytometry (BD FACSCanto II, Becton, Dickinson and Company, New York, NY, USA). The fluorescence intensity was quantified by collecting 10,000 cells, and X-means were used for comparing the differences in cell uptake between the groups.

Row | Compound | inhibition of HCE-T cell uptake of (2-HP-β-CD)/PLGA NPs (HCE-T cells [1]) [%] | further results
1 | Nystain | 38.3 | 
2 | CCN(c1nc(N)c(C(=O)N=C(N)N)nc1Cl)C(C)C [EIPA, 5-(N-ethyl-N-isopropyl) amiloride] | 53.3 | 
3 | [N-]=[N+]=[N-].[Na+] [sodium azide] |  | reduction of uptake of (2-HP-β-CD)/PLGA NPs (HCE-T cells [2]): 60.0%
4 | CN(C)CCCN1c2ccccc2Sc2ccc(Cl)cc21 [Chlorpromazine] |  | inhibition at 30 µM (HCE-T cells [1]; Homo sapiens, read-out: inhibition of HCE-T cell uptake of (2-HP-β-CD)/PLGA NPs): 46.4%
